Measured values taken from ChEMBL document CHEMBL1121984 (J Med Chem, 1982).
Active and inactive are the calls of the source. No cut-off for these calls is given here.

target: T1, Dopamine receptor (Bos taurus, UniProt Q95136+P20288); experiment: Inhibitory binding activity against dopamine receptor using [3H]ADTN as the radioligand in striatal tissue of calf brain.; format: tissue-based, Striatum; conditions: not given

Structure (SMILES)	IC50 [µM]
Br.CCN(CC)C1Cc2ccc(O)c(O)c2C1 (configuration not stated)	39
COc1cc2c(cc1OC)CC(N(C)C)C2.Cl	400
Br.CCCN(CCC)C1Cc2ccc(O)c(O)c2C1 (configuration not stated)	10
CCCNC1Cc2ccc(OC)c(OC)c2C1.Cl (configuration not stated)	51000
Br.CCCN(CCC)C1Cc2cc(O)c(O)cc2C1	412
Br.CN(C)C1Cc2cc(O)c(O)cc2C1	6
Br.CCN(CC)C1Cc2ccc(OC)c(OC)c2C1 (configuration not stated)	1660
COc1ccc2c(c1OC)CC(N(C)C)C2 (configuration not stated)	2300
CN1C[C@H](CC#N)C[C@@H]2c3cccc4[nH]c(Cl)c(c34)C[C@H]21 [LERGOTRILE]	4.5

organism: Felis catus; experiment: Inhibition of positive chronotropic effect of the cardioaccelerator was determined; format: functional; conditions: read-out: ID50 (the source's name)

Structure (SMILES)	ED50 [µmol/kg]
NCCc1ccc(O)c(O)c1 [DOPAMINE]	0.105
Br.CCCN(CCC)C1Cc2cc(O)c(O)cc2C1	> 3
CN1CCc2cccc3c2[C@H]1Cc1ccc(O)c(O)c1-3 [APOMORPHINE]	0.022
CCNC1Cc2ccc(O)c(O)c2C1 (configuration not stated)	> 1

system: not listed separately; experiment: The compound was tested for its emetic activity in dog, activity expressed as potency ratio.; format: functional; conditions: not given

Structure (SMILES)	Potency ratio
Br.CCN(CC)C1Cc2ccc(O)c(O)c2C1 (configuration not stated)	0.26
Br.CCCN(CCC)C1Cc2ccc(O)c(O)c2C1 (configuration not stated)	1.24

target: T1, Dopamine receptor; experiment: Inhibitory binding activity against dopamine receptor using [3H]spiperone as the radioligand in striatal tissue of calf brain.; format: tissue-based, Striatum; conditions: not given

Structure (SMILES)	IC50 [µM]
Br.CCN(CC)C1Cc2ccc(O)c(O)c2C1 (configuration not stated)	220
COc1cc2c(cc1OC)CC(N(C)C)C2.Cl	50
Br.CCCN(CCC)C1Cc2ccc(O)c(O)c2C1 (configuration not stated)	53.86
CCCNC1Cc2ccc(OC)c(OC)c2C1.Cl (configuration not stated)	105
Br.CCCN(CCC)C1Cc2cc(O)c(O)cc2C1	17.6
Br.CN(C)C1Cc2cc(O)c(O)cc2C1	104
Br.CCN(CC)C1Cc2ccc(OC)c(OC)c2C1 (configuration not stated)	29
COc1ccc2c(c1OC)CC(N(C)C)C2 (configuration not stated)	100
Br.CCN(CC)C1Cc2cc(O)c(O)cc2C1	246
CN1C[C@H](CC#N)C[C@@H]2c3cccc4[nH]c(Cl)c(c34)C[C@H]21 [LERGOTRILE]	23.7
CCCN(CCC)C1Cc2cc(OC)c(OC)cc2C1.Cl	10.4

target: T1, Dopamine receptor; experiment: Inhibitory binding activity against dopamine receptor using [3H]spiperone as the radioligand in striatal tissue of calf brain; format: tissue-based, Striatum; conditions: not given

Structure (SMILES)	IC50 [µM]
Br.CN(C)C1Cc2ccc(O)c(O)c2C1 (configuration not stated)	91

system: Felis catus; experiment: The compounds were evaluated for their ability to inhibit the positive chronotropic effect of stimulation of the cardioaccelerator nerve in the anesthetized cat; format: functional; conditions: read-out: ID50 (the source's name)

Structure (SMILES)	ED50 [µmol/kg]
CN1C[C@H](CC#N)C[C@@H]2c3cccc4[nH]c(Cl)c(c34)C[C@H]21 [LERGOTRILE]	0.27

target: T1, Dopamine receptor; experiment: Inhibitory binding activity against dopamine receptor using [3H]ADTN as the radioligand in striatal tissue of calf brain; format: tissue-based, Striatum; conditions: not given

Structure (SMILES)	IC50 [µM]
Br.CN(C)C1Cc2ccc(O)c(O)c2C1 (configuration not stated)	10

organism: Felis catus; experiment: The compound was evaluated for its ability to inhibit the positive chronotropic effect of the cardioaccelerator; format: functional; conditions: read-out: ID50 (the source's name)

Structure (SMILES)	ED50 [µmol/kg]
Br.CCN(CC)C1Cc2ccc(O)c(O)c2C1 (configuration not stated)	0.05
Br.CCCN(CCC)C1Cc2ccc(O)c(O)c2C1 (configuration not stated)	0.02

system: Felis catus; experiment: Inhibition of the positive chronotropic effect of stimulation of the cardioaccelerator nerve in the anesthetized cat.; format: functional, organism-based; conditions: not given

Structure (SMILES)	ID50
CNC1Cc2cc(O)c(O)cc2C1	Increased heart rate at 3umol/kg
COc1cc2c(cc1OC)CC(N)C2	inactive
Br.CN(C)C1Cc2ccc(O)c(O)c2C1 (configuration not stated)	Increased heart rate
COc1cc2c(cc1OC)CC(N(C)C)C2.Cl	inactive
CNC1Cc2ccc(OC)c(OC)c2C1 (configuration not stated)	inactive
CCCNC1Cc2ccc(O)c(O)c2C1 (configuration not stated)	inactive
CCCNC1Cc2ccc(OC)c(OC)c2C1.Cl (configuration not stated)	inactive
Br.CN(C)C1Cc2cc(O)c(O)cc2C1	Increased heart rate
Br.CCN(CC)C1Cc2ccc(OC)c(OC)c2C1 (configuration not stated)	inactive
CCN(CC)C1Cc2cc(OC)c(OC)cc2C1	inactive
CC(C)NC1Cc2ccc(O)c(O)c2C1 (configuration not stated)	inactive
COc1ccc2c(c1OC)CC(NC(C)C)C2 (configuration not stated)	inactive
CNC1Cc2cc(OC)c(OC)cc2C1	inactive
COc1ccc2c(c1OC)CC(N(C)C)C2 (configuration not stated)	inactive
CC(C)NC1Cc2cc(O)c(O)cc2C1	Increased heart rate at 3umol/kg
COc1ccc2c(c1OC)CC(N)C2 (configuration not stated)	inactive
NC1Cc2ccc(O)c(O)c2C1 (configuration not stated)	Increased heart rate at 3umol/kg
Br.CCN(CC)C1Cc2cc(O)c(O)cc2C1	Increased heart rate
COc1cc2c(cc1OC)CC(N(C)C(C)C)C2	inactive
CC(C)N(C)C1Cc2cc(O)c(O)cc2C1	Increased heart rate at 3umol/kg
NC1Cc2cc(O)c(O)cc2C1	Increased heart rate at 3umol/kg
COc1cc2c(cc1OC)CC(NC(C)C)C2	inactive
CNC1Cc2ccc(O)c(O)c2C1 (configuration not stated)	Increased heart rate at 3umol/kg
CCNC1Cc2ccc(OC)c(OC)c2C1 (configuration not stated)	inactive
CCCN(CCC)C1Cc2cc(OC)c(OC)cc2C1.Cl	inactive

system: Canis familiaris; experiment: Effective dose for emetic activity after administration to dog; format: functional; conditions: Canis lupus familiaris

Structure (SMILES)	ED50 [mg/kg]
CN1CCc2cccc3c2[C@H]1Cc1ccc(O)c(O)c1-3 [APOMORPHINE]	0.07
